# Reference: patent US20110245283A1, “Methods for predicting the response to statins” (priority 2009, published 2011)
# Read-outs that look alike come from different tables or passages of the source.
# Legend:
# [1] = tested on: LDL; assay: Logistic regression models of attaining LDL goal: odds ratios for concurrent or prior drug doses; format: in vivo, patients
# Procedure: G. Covariates for the multivariate model—The following list includes the predictors one or more of which may be tested in the multivariate models. • 1. AGE: (expressed in units of 10 years) at time that the new statin prescription was released • 2. GENDER, E. G., MALE: 1=yes, 0=no • 3. BMI (kg/M^2): last value before release date • 4. HBA1C (hemoglobin Alc): last value before release date • 5. PLDL: preceding LDL level expressed in e.g. 10 mg/dl units • 6. Statins • a. PLOVA: prior daily dose of lovastatin expressed in e.g. 10 mg units • b. […] For additional drugs: • a. AMIODOSE: amiodarone dose in mg/day • b. CARBDOSE: carbemazepine dose in mg/day • c. PIOGDOSE: pioglitazone dose expressed as number of 15 mg doses per day • d. […] METFDOSE: metformin dose expressed as number of 1000 mg doses per day • f. PHENDOSE: phenyloin dose in mg/day • g. RISPDOSE: risperidone dose in mg/day • h. ROSIDOSE: rosiglitazone dose in mg/day • i.
# Body mass index (BMI) was chosen as a covariate of statin response because obese patients tend to consume a diet high in cholesterol. It was hypothesized that they would respond less well to statins because their hypercholesterolemia was more likely to be mediated by dietary indiscretion than excessive LDL synthesis. […] Metformin and the thiazolidinediones were chosen because they reduce LDL levels in diabetic patients through mechanisms that may or may not be affected by concurrent statin treatment. The remaining non-statin drugs were chosen because they are commonly used drugs that potentiate the effect of statins. They were selected by reviewing the official on-line VA pharmaceutical reference (Micromedex®) for major interactions mediated by impaired statin metabolism. […] The daily dose of the non-statin drug was calculated by the method described in Section B.
# H. Assembling the predictor file—The patient identifier was used to link the new statin prescription type and dose, the preceding LDL above goal, and the type and dose of the previous statin (if any) with the patient's most recent HbA1c, most recent BMI, and the daily doses of 9 drugs with major statin interactions that were active at the time the new prescription was released.
# The dependent variable was attainment of goal (LDL <100 mg/dl). […] Step selections were based upon the maximal likelihood method with α<0.15 to enter and ≧0.15 to remove.
# [2] = tested on: LDL; details: second study named in the background; any dose adjustment or change; cited from earlier work
# [3] = tested on: LDL; details: cited from earlier work
# [4] = tested on: LDL; assay: Proportion of CAD patients attaining LDL goal (<100 mg/dl) on a statin dose; validation sets stratified by predicted probability; details: for Proportion of patients achieving goal: validation set
smiles,measurement,setting,value
"CC[C@H](C)C(=O)O[C@H]1C[C@@H](C)C=C2C=C[C@H](C)[C@H](CC[C@@H]3C[C@@H](O)CC(=O)O3)[C@H]21 [Lovastatin, lovastatin]",OR,"[1]; odds of goal LDL <100 mg/dl, Lovastatin 20 mg [A] model (includes HbA1c; n = 595), per dose increment",0.768
same,OR,"[1]; odds of goal, Lovastatin 20 mg [B] model (excludes HbA1c; n = 733), per dose increment",0.542
same,OR,"[1]; odds of goal, Lovastatin 40 mg model (n = 764), per dose increment",0.768
same,OR,"[1]; odds of goal, Lovastatin 80 model (n = 309), per dose increment",0.868
same,OR,"[1]; odds of goal, Model 1, Lovastatin 20 mg, per 10 mg/day",0.593
same,OR,"[1]; odds of goal, Model 1, Lovastatin 40 mg, per 10 mg/day",0.770
same,OR,"[1]; odds of goal, Model 1, Lovastatin 80 mg, per 10 mg/day",0.868
same,OR,"[1]; odds of goal, Model 1, Simvastatin 10 mg, per 10 mg/day",0.434
same,OR,"[1]; odds of goal, Model 1, Simvastatin 20 mg, per 10 mg/day",0.615
same,OR,"[1]; odds of goal, Model 1, Simvastatin 40 mg, per 10 mg/day",0.928
same,OR,"[1]; odds of goal, Model 1, Simvastatin 80 mg, per 10 mg/day",1.04
same,OR,"[1]; odds of goal, Simvastatin 10 mg [B] model (includes BMI; n = 136), per dose increment",0.341
same,OR,"[1]; odds of goal, Simvastatin 10 mg [C] model (excludes BMI; n = 219), per dose increment",0.382
same,OR,"[1]; odds of goal, Simvastatin 20 mg model (n = 374), per dose increment",0.617
same,OR,"[1]; odds of goal, Simvastatin 40 mg model (n = 698), per dose increment",0.921
same,Success of dose adjustment (reaching LDL goal),[2],≤ 50%
same,Average LDL reduction,[3]; Dose 20 mg,29%
same,Average LDL reduction,[3]; Dose 40 mg,31%
same,Average LDL reduction,[3]; Dose 80 mg,40-48%
same,Proportion of patients achieving goal,"[4]; Lovastatin 10 mg model, Overall",36.8%
same,Proportion of patients achieving goal,"[4]; Lovastatin 10 mg model, predicted probability 0-19%",10.9%
same,Proportion of patients achieving goal,"[4]; Lovastatin 10 mg model, predicted probability 20-39%",31.3%
same,Proportion of patients achieving goal,"[4]; Lovastatin 10 mg model, predicted probability 40-59%",46.8%
same,Proportion of patients achieving goal,"[4]; Lovastatin 10 mg model, predicted probability 60-79%",73.3%
same,Proportion of patients achieving goal,"[4]; Lovastatin 20 mg [A] model, Overall",49.2%
same,Proportion of patients achieving goal,"[4]; Lovastatin 20 mg [A] model, predicted probability 0-19%",15.0%
same,Proportion of patients achieving goal,"[4]; Lovastatin 20 mg [A] model, predicted probability 20-39%",25.8%
same,Proportion of patients achieving goal,"[4]; Lovastatin 20 mg [A] model, predicted probability 40-59%",55.1%
same,Proportion of patients achieving goal,"[4]; Lovastatin 20 mg [A] model, predicted probability 60-79%",73.0%
same,Proportion of patients achieving goal,"[4]; Lovastatin 20 mg [A] model, predicted probability 80-100%",71.4%
same,Proportion of patients achieving goal,"[4]; Lovastatin 20 mg [B] model, Overall",49.3%
same,Proportion of patients achieving goal,"[4]; Lovastatin 20 mg [B] model, predicted probability 0-19%",12.7%
same,Proportion of patients achieving goal,"[4]; Lovastatin 20 mg [B] model, predicted probability 20-39%",33.0%
same,Proportion of patients achieving goal,"[4]; Lovastatin 20 mg [B] model, predicted probability 40-59%",53.6%
same,Proportion of patients achieving goal,"[4]; Lovastatin 20 mg [B] model, predicted probability 60-79%",75.0%
same,Proportion of patients achieving goal,"[4]; Lovastatin 20 mg [B] model, predicted probability 80-100%",64.7%
same,Proportion of patients achieving goal,"[4]; Lovastatin 40 mg model, Overall",49.3%
same,Proportion of patients achieving goal,"[4]; Lovastatin 40 mg model, predicted probability 0-19%",11.1%
same,Proportion of patients achieving goal,"[4]; Lovastatin 40 mg model, predicted probability 20-39%",31.2%
same,Proportion of patients achieving goal,"[4]; Lovastatin 40 mg model, predicted probability 40-59%",50.7%
same,Proportion of patients achieving goal,"[4]; Lovastatin 40 mg model, predicted probability 60-79%",70.7%
same,Proportion of patients achieving goal,"[4]; Lovastatin 40 mg model, predicted probability 80-100%",100%
same,Proportion of patients achieving goal,"[4]; Model 1, lovastatin 10 mg, Overall",36.8%
same,Proportion of patients achieving goal,"[4]; Model 1, lovastatin 10 mg, predicted probability 0-19%",10.9%
same,Proportion of patients achieving goal,"[4]; Model 1, lovastatin 10 mg, predicted probability 20-39%",31.3%
same,Proportion of patients achieving goal,"[4]; Model 1, lovastatin 10 mg, predicted probability 40-59%",46.8%
same,Proportion of patients achieving goal,"[4]; Model 1, lovastatin 10 mg, predicted probability 60-79%",73.3%
same,Proportion of patients achieving goal,"[4]; Model 1, lovastatin 20 mg, Overall",47.4%
same,Proportion of patients achieving goal,"[4]; Model 1, lovastatin 20 mg, predicted probability 0-19%",8.5%
same,Proportion of patients achieving goal,"[4]; Model 1, lovastatin 20 mg, predicted probability 20-39%",29.0%
same,Proportion of patients achieving goal,"[4]; Model 1, lovastatin 20 mg, predicted probability 40-59%",54.4%
same,Proportion of patients achieving goal,"[4]; Model 1, lovastatin 20 mg, predicted probability 60-79%",74.6%
same,Proportion of patients achieving goal,"[4]; Model 1, lovastatin 40 mg, Overall",49.3%
same,Proportion of patients achieving goal,"[4]; Model 1, lovastatin 40 mg, predicted probability 0-19%",11.1%
same,Proportion of patients achieving goal,"[4]; Model 1, lovastatin 40 mg, predicted probability 20-39%",33.3%
same,Proportion of patients achieving goal,"[4]; Model 1, lovastatin 40 mg, predicted probability 40-59%",49.1%
same,Proportion of patients achieving goal,"[4]; Model 1, lovastatin 40 mg, predicted probability 60-79%",73.2%
same,Chance of success (reaching goal) of any dose choice,"[4]; this study, all doses",≤ 50%
